According to US20240287007A1, “N-(1,3,4-OXADIAZOL-2-YL)PHENYLCARBOXAMIDES AS HERBICIDES” (BAYER AKTIENGESELLSCHAFT, priority 2021, published 2024):

What was measured:
Type in all cases: in vivo
[1] = test system: ABUTH (Abutylon threophrasti); test: Post-emergence herbicidal action against ABUTH; details: 80 g/ha, visual assessment after about 3 weeks
Experimental: (§1) Seeds of monocotyledonous and dicotyledonous weed and crop plants are laid out in sandy loam soil in wood-fiber pots, covered with soil and cultivated in a greenhouse under good growth conditions. 2 to 3 weeks after sowing, the trial plants are treated at the one-leaf stage. The compounds of the invention, formulated in the form of wettable powders (WP) or as emulsion concentrates (EC), are then sprayed onto the green parts of the plants as aqueous suspension or emulsion at a water application rate equating to 600 to 800 l/ha with addition of 0.2% wetting agent. After the test plants have been left to stand in the greenhouse under optimal growth conditions for about 3 weeks, the action of the preparations is assessed visually in comparison to untreated controls (herbicidal action in percent (%): 100% activity=the plants have died, 0% activity=like control plants).

[2] = test system: AMARE (Amaranthus retroflexus); test: Post-emergence herbicidal action against AMARE; details: visual assessment after about 3 weeks
Experimental: as §1

[3] = test system: DIGSA (Digitaria sanguinalis); test: Post-emergence herbicidal action against DIGSA; details: visual assessment after about 3 weeks
Experimental: as §1

[4] = test system: MATIN (Matricaria inodora); test: Post-emergence herbicidal action against MATIN; details: visual assessment after about 3 weeks
Experimental: as §1

[5] = test system: PHBPU (Pharbitis purpurea); test: Post-emergence herbicidal action against PHBPU; details: visual assessment after about 3 weeks
Experimental: as §1

SETVI (Setaria viridis) [6] = test: Post-emergence herbicidal action against SETVI; details: visual assessment after about 3 weeks
Experimental: as §1

VERPE (Veronica persica) = test: Post-emergence herbicidal action against VERPE; details: 80 g/ha, visual assessment after about 3 weeks
Experimental: as §1

VIOTR (Viola tricolor) [7] = test: Post-emergence herbicidal action against VIOTR; details: visual assessment after about 3 weeks
Experimental: as §1

KCHSC (Kochia scoparia) [8] = test: Post-emergence herbicidal action against KCHSC; details: visual assessment after about 3 weeks
Experimental: as §1

[9] = test system: ABUTH (Abutylon threophrasti); test: Pre-emergence herbicidal effect against ABUTH; details: scored visually after 3 weeks
Text: (§2) Seeds of monocotyledonous and dicotyledonous weed plants and crop plants are laid out in sandy loam soil in wood-fiber pots and covered with soil. The compounds of the invention, formulated in the form of wettable powders (WP) or as emulsion concentrates (EC), are then applied to the surface of the covering soil as aqueous suspension or emulsion at a water application rate equating to 600 to 800 l/ha with addition of 0.2% wetting agent. After the treatment, the pots are placed in a greenhouse and kept under good growth conditions for the trial plants. The damage to the test plants is scored visually after a test period of 3 weeks by comparison with untreated controls (herbicidal activity in percent (%): 100% activity=the plants have died, 0% activity=like control plants).

[10] = test system: AMARE (Amaranthus retroflexus); test: Pre-emergence herbicidal effect against AMARE; details: 80 g/ha, scored visually after 3 weeks
Text: as §2

[11] = test system: DIGSA (Digitaria sanguinalis); test: Pre-emergence herbicidal effect against DIGSA; details: scored visually after 3 weeks
Text: as §2

[12] = test system: ECHCG (Echinochloa crus-galli); test: Pre-emergence herbicidal effect against ECHCG; details: 80 g/ha, scored visually after 3 weeks
Text: as §2

SETVI (Setaria viridis) [13] = test: Pre-emergence herbicidal effect against SETVI; details: 80 g/ha, scored visually after 3 weeks
Text: as §2

VIOTR (Viola tricolor) [14] = test: Pre-emergence herbicidal effect against VIOTR; details: scored visually after 3 weeks
Text: as §2

KCHSC (Kochia scoparia) [15] = test: Pre-emergence herbicidal effect against KCHSC; details: scored visually after 3 weeks
Text: as §2

CSc1c(OC(F)(F)F)ccc(C(=O)Nc2nnco2)c1Cl [Example 1-31, 2-chloro-3-(methylsulfanyl)-N-(1,3,4-oxadiazol-2-yl)-4-(trifluoromethoxy)benzamide]
Post-emergence effect at 80 g/ha against ABUTH in % [1]: 90%
Post-emergence effect at 20 g/ha against AMARE in % ([2]; 20 g/ha): 100%
Post-emergence effect at 80 g/ha against AMARE in % ([2]; 80 g/ha): 100%
Post-emergence effect at 20 g/ha against DIGSA in % ([3]; 20 g/ha): 90%
Post-emergence effect at 80 g/ha against DIGSA in % ([3]; 80 g/ha): 90%
Post-emergence effect at 20 g/ha against MATIN in % ([4]; 20 g/ha): 80%
Post-emergence effect at 80 g/ha against MATIN in % ([4]; 80 g/ha): 90%
Post-emergence effect at 20 g/ha against PHBPU in % ([5]; 20 g/ha): 90%
Post-emergence effect at 80 g/ha against PHBPU in % ([5]; 80 g/ha): 90%
Post-emergence effect at 20 g/ha against SETVI in % (SETVI (Setaria viridis) [6]; 20 g/ha): 80%
Post-emergence effect at 80 g/ha against SETVI in % (SETVI (Setaria viridis) [6]; 80 g/ha): 90%
Post-emergence effect at 80 g/ha against VERPE in % (VERPE (Veronica persica)): 80%
Post-emergence effect at 20 g/ha against VIOTR in % (VIOTR (Viola tricolor) [7]; 20 g/ha): 90%
Post-emergence effect at 80 g/ha against VIOTR in % (VIOTR (Viola tricolor) [7]; 80 g/ha): 100%
Post-emergence effect at 20 g/ha against KCHSC in % (KCHSC (Kochia scoparia) [8]; 20 g/ha): 100%
Post-emergence effect at 80 g/ha against KCHSC in % (KCHSC (Kochia scoparia) [8]; 80 g/ha): 100%
Pre-emergence effect at 20 g/ha against ABUTH in % ([9]; 20 g/ha): 90%
Pre-emergence effect at 80 g/ha against ABUTH in % ([9]; 80 g/ha): 100%
Pre-emergence effect at 80 g/ha against AMARE in % [10]: 100%
Pre-emergence effect at 20 g/ha against DIGSA in % ([11]; 20 g/ha): 90%
Pre-emergence effect at 80 g/ha against DIGSA in % ([11]; 80 g/ha): 100%
Pre-emergence effect at 80 g/ha against ECHCG in % [12]: 100%
Pre-emergence effect at 80 g/ha against SETVI in % (SETVI (Setaria viridis) [13]): 100%
Pre-emergence effect at 20 g/ha against VIOTR in % (VIOTR (Viola tricolor) [14]; 20 g/ha): 90%
Pre-emergence effect at 80 g/ha against VIOTR in % (VIOTR (Viola tricolor) [14]; 80 g/ha): 90%
Pre-emergence effect at 20 g/ha against KCHSC in % (KCHSC (Kochia scoparia) [15]; 20 g/ha): 90%
Pre-emergence effect at 80 g/ha against KCHSC in % (KCHSC (Kochia scoparia) [15]; 80 g/ha): 100%
